In BindingDB's records for patent US20240316020 (Icagen, 2024):

Target: Potassium voltage-gated channel subfamily KQT member 2 (Homo sapiens, UniProt O43526)
Test: SyncroPatch 384 (Nanion) High Throughput Electrophysiology
Protocol: Human Kv7.2, Kv7.4 or Kv7.5/7.3 channels were evaluated using a voltage protocol in which cells were voltage-clamped at a holding potential of -60 mV. Potassium currents were continuously activated with a series of three voltage steps to -30 mV for 3 seconds, 40 mV for 1 second and -90 mV for 4 seconds with 12 seconds between successive voltage sweeps. Potassium currents were measured from the -90 mV repolarizing step. Baseline current was assessed for 3.5 minutes prior to the addition of 5.6 uM zinc pyrithione (1 uM for Kv7.4). Kv7.2, Kv7.4 or Kv7.5/7.3 current in the presence of zinc pyrithione was acquired over five minutes to allow channels to reach steady state activity prior to addition of test agents. Channel activity was monitored for three minutes preceding the addition of 30 uM ML-213 (3 minutes) to achieve maximum activation.

Potassium voltage-gated channel subfamily KQT member 2, sequence (O43526 whole entry): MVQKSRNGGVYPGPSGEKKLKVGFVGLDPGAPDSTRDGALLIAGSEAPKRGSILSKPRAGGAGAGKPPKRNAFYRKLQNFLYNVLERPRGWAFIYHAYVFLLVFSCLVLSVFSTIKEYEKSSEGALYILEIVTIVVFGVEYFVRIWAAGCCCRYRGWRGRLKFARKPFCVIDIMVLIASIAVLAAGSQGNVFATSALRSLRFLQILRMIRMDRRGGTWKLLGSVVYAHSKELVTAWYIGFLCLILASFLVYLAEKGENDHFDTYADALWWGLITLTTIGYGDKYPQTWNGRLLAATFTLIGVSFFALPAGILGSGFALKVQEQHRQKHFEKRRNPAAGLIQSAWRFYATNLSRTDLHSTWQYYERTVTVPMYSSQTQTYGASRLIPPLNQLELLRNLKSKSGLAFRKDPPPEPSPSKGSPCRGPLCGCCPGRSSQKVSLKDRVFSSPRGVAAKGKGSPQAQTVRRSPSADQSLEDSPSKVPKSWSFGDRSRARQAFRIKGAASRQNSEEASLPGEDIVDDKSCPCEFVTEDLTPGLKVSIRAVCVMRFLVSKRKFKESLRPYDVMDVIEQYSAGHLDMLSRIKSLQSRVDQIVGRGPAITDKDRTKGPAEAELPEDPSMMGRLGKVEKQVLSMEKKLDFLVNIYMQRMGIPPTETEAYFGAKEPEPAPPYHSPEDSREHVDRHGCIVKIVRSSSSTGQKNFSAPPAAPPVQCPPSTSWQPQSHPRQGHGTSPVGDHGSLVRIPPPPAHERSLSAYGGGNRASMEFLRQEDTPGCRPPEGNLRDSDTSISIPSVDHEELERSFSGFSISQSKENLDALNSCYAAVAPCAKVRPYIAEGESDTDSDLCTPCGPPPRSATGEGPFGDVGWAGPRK

EC50: 3.63 µM
SMILES: O=C(NCc1ccnc(-n2cccn2)c1)NC1COC2(CCCC2)C1 (stereo unspecified) [US20240316020, Example 1]
